The values below come from patent publication US11684598B2, “Use of cannabinoids in the treatment of epilepsy” (priority 2015, dated 2023).

Test [1] has as its system D. discoideum growth upon R. planticola bacterial plates. The test can be described thus: Bacterial plate screen. It is filed as cell-based, Dictyostelium discoideum. The note with it: CBDA 12.3 μM, CBD 16.7 μM; 4 days. The method, then: Heat killed (75° C. for 30 minutes) R. planticola was spread onto the plates and ˜50 wild-type A×2 cells were added and left to grow at 22° C. Plates were checked regularly for colonies.

Another test deals with generalized epilepsy. The note with it: eight adult patients with generalized epilepsy; cited from earlier work.
Test [2] deals with seizures. Particulars: 200 mg/day pure CBD, four adult patients; cited from earlier work.
The subject of test [3] is D. discoideum development. Nature of the test: D. discoideum development assay. It is filed as cell-based, Dictyostelium discoideum. Particulars: 20 μM, 24 h on nitrocellulose filter. The method, then:
Wild type (A×2) D. discoideum cells were grown in HL5 shaking culture for two days prior to development assay. Cells were washed in phosphate buffer (KK2; 20 mM Potassium phosphate buffer, pH 6.1), and 1×10^7 cells were spread onto nitrocellulose filters (Millipore, Cork). Absorbent pads (Millipore, Cork), divided into quarters, were placed in 2 ml culture dishes and soaked with 0.5 ml KK2 containing the cannabinoids at 20 μM. 1 mM Valproic acid was used as a positive control while KK2 containing 1% DMSO was used as a solvent only control. Nitrocellulose filters containing cells were quartered and place upon absorbent pads and maintained in a humid environment at 22° C. for 24 h. Fruiting body morphology was recorded using a dissection microscope and camera.

The test system of test [4] is seizures. The note with it: 200 mg/day pure CBD, twelve institutionalized adult patients, open label; cited from earlier work.

Molecules are shown by their SMILES.

Take `C=C(C)[C@@H]1CCC(C)=C[C@H]1c1c(O)cc(CCCCC)cc1O` [CBD, Cannabidiol]: the “cell survival (colony number) compared to control (solvent only)” value in test [1] is recorded as “No difference in colony number”. The reduction of seizures entry in the test on generalized epilepsy is reported as “marked reduction of seizures in 4 of the patients”. In the test on seizures [2], the seizure freedom result was “two of the four patients became seizure free”. The “effect on development (fruiting body morphology)” value in test [3] is “able to aggregate and develop to form mature fruiting bodies”. Besides, the control of seizures entry in the test with seizures [4] was “ineffective in controlling seizures”.
